Reference: PubChem BioAssay (NCI)
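Briefly, cells in 96-well plates were exposed to five compound concentrations for 48 h, and endpoints were estimated by linear interpolation. Here, GI50 denotes the concentration required for 50% inhibition of growth. Definition used: TGI = concentration required for complete inhibition of growth.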

Key:
Test in all cases: growth of human tumour cells (NCI), 48 h
786-0 renal = tested on: 786-0 renal
A498 renal = tested on: A498 renal
A549 NSCLC = tested on: A549 NSCLC
ACHN renal = tested on: ACHN renal
BT-549 breast = tested on: BT-549 breast
CAKI-1 renal = tested on: CAKI-1 renal
CCRF-CEM leukemia = tested on: CCRF-CEM leukemia
COLO 205 colon = tested on: COLO 205 colon
DU-145 prostate = tested on: DU-145 prostate
HCC-2998 colon = tested on: HCC-2998 colon
HCT-116 colon = tested on: HCT-116 colon
HCT-15 colon = tested on: HCT-15 colon
HOP-62 NSCLC = tested on: HOP-62 NSCLC
HOP-92 NSCLC = tested on: HOP-92 NSCLC
HS 578T breast = tested on: HS 578T breast
HT29 colon = tested on: HT29 colon
IGROV1 ovarian = tested on: IGROV1 ovarian
K-562 leukemia = tested on: K-562 leukemia
KM12 colon = tested on: KM12 colon
LOX IMVI melanoma = tested on: LOX IMVI melanoma
M14 melanoma = tested on: M14 melanoma
MALME-3M melanoma = tested on: MALME-3M melanoma
MCF7 breast = tested on: MCF7 breast
MDA-MB-231 breast = tested on: MDA-MB-231 breast
MDA-MB-435 = tested on: MDA-MB-435
MOLT-4 leukemia = tested on: MOLT-4 leukemia
NCI-H226 lung = tested on: NCI-H226 lung
NCI-H23 lung = tested on: NCI-H23 lung
NCI-H460 lung = tested on: NCI-H460 lung
NCI-H522 lung = tested on: NCI-H522 lung
NCI/ADR-RES ovarian = tested on: NCI/ADR-RES ovarian
OVCAR-3 ovarian = tested on: OVCAR-3 ovarian
OVCAR-4 ovarian = tested on: OVCAR-4 ovarian
OVCAR-5 ovarian = tested on: OVCAR-5 ovarian
OVCAR-8 ovarian = tested on: OVCAR-8 ovarian
PC-3 prostate = tested on: PC-3 prostate
RPMI-8226 leukemia = tested on: RPMI-8226 leukemia
RXF 393 renal = tested on: RXF 393 renal
SF-268 CNS = tested on: SF-268 CNS
SF-295 CNS = tested on: SF-295 CNS
SF-539 CNS = tested on: SF-539 CNS
SK-MEL-2 melanoma = tested on: SK-MEL-2 melanoma
SK-MEL-28 melanoma = tested on: SK-MEL-28 melanoma
SK-MEL-5 melanoma = tested on: SK-MEL-5 melanoma
SK-OV-3 ovarian = tested on: SK-OV-3 ovarian
SN12C renal = tested on: SN12C renal
SNB-19 CNS = tested on: SNB-19 CNS
SNB-75 CNS = tested on: SNB-75 CNS
SR leukemia = tested on: SR leukemia
SW-620 colon = tested on: SW-620 colon
T-47D breast = tested on: T-47D breast
TK-10 renal = tested on: TK-10 renal
U251 CNS = tested on: U251 CNS
UACC-257 melanoma = tested on: UACC-257 melanoma
UACC-62 melanoma = tested on: UACC-62 melanoma
UO-31 renal = tested on: UO-31 renal

For `COc1ccc(/C=C/C(=O)c2cccc(B(O)O)c2)cc1O`, which GI50 (786-0 renal) is on record?
Its GI50 is 4.33 µM.

And the TGI (786-0 renal)?
Its TGI is 40.8 µM.

And the GI50 (A498 renal)?
Its GI50 is 2310 nM.

And the TGI (A498 renal)?
Its TGI is 11.2 µM.

What about the GI50 (A549 NSCLC) of the same compound?
Its GI50 is 3.35 µM.

What about the TGI (A549 NSCLC) of the same compound?
The TGI was 46.9 µM.

What about the GI50 (ACHN renal) of the same compound?
The GI50 was 4.59 µM.

And the TGI (ACHN renal)?
Its TGI is 71.1 µM.

What about the GI50 (BT-549 breast) of the same compound?
Its GI50 is 2820 nM.

And the TGI (BT-549 breast)?
Its TGI is 14.2 µM.

What about the GI50 (CAKI-1 renal) of the same compound?
Its GI50 is 3.43 µM.

What about the TGI (CAKI-1 renal) of the same compound?
The TGI was 19.3 µM.

What about the GI50 (CCRF-CEM leukemia) of the same compound?
The GI50 was 3.13 µM.

What about the TGI (CCRF-CEM leukemia) of the same compound?
The TGI was 14.1 µM.

What about the GI50 (COLO 205 colon) of the same compound?
Its GI50 is 13 µM.

What about the TGI (COLO 205 colon) of the same compound?
Its TGI is 27.5 µM.

And the GI50 (DU-145 prostate)?
The GI50 was 2800 nM.

What about the TGI (DU-145 prostate) of the same compound?
The TGI was 7.88 µM.

And the GI50 (HCC-2998 colon)?
The GI50 was 2670 nM.

What about the TGI (HCC-2998 colon) of the same compound?
The TGI was 7.47 µM.

What about the GI50 (HCT-116 colon) of the same compound?
The GI50 was 2550 nM.

And the TGI (HCT-116 colon)?
Its TGI is 10.7 µM.

And the GI50 (HCT-15 colon)?
The GI50 was 2440 nM.

And the TGI (HCT-15 colon)?
The TGI was 12.3 µM.

And the GI50 (HOP-62 NSCLC)?
The GI50 was 4.24 µM.

What about the TGI (HOP-62 NSCLC) of the same compound?
Its TGI is 18.6 µM.

What about the GI50 (HOP-92 NSCLC) of the same compound?
Its GI50 is 1420 nM.

What about the TGI (HOP-92 NSCLC) of the same compound?
The TGI was 29.7 µM.

And the GI50 (HS 578T breast)?
Its GI50 is 2280 nM.

And the TGI (HS 578T breast)?
The TGI was 8.87 µM.

What about the GI50 (HT29 colon) of the same compound?
The GI50 was 9.77 µM.

And the TGI (HT29 colon)?
The TGI was 44.4 µM.

What about the GI50 (IGROV1 ovarian) of the same compound?
Its GI50 is 5.39 µM.

What about the TGI (IGROV1 ovarian) of the same compound?
Its TGI is 33 µM.

What about the GI50 (K-562 leukemia) of the same compound?
Its GI50 is 1330 nM.

And the TGI (K-562 leukemia)?
Its TGI is > 100 µM.

And the GI50 (KM12 colon)?
The GI50 was 2510 nM.

And the TGI (KM12 colon)?
The TGI was 6.47 µM.

What about the GI50 (LOX IMVI melanoma) of the same compound?
Its GI50 is 2070 nM.

And the TGI (LOX IMVI melanoma)?
The TGI was 5.37 µM.

What about the GI50 (M14 melanoma) of the same compound?
Its GI50 is 4.23 µM.

And the TGI (M14 melanoma)?
Its TGI is 18.6 µM.

And the GI50 (MALME-3M melanoma)?
Its GI50 is 15.3 µM.

What about the TGI (MALME-3M melanoma) of the same compound?
Its TGI is 32.1 µM.

What about the GI50 (MCF7 breast) of the same compound?
The GI50 was 2210 nM.

What about the TGI (MCF7 breast) of the same compound?
Its TGI is 12.4 µM.

And the GI50 (MDA-MB-231 breast)?
Its GI50 is 3.44 µM.

And the TGI (MDA-MB-231 breast)?
The TGI was > 100 µM.

What about the GI50 (MDA-MB-435) of the same compound?
Its GI50 is 1890 nM.

What about the TGI (MDA-MB-435) of the same compound?
Its TGI is 4.57 µM.

And the GI50 (MOLT-4 leukemia)?
Its GI50 is 4.04 µM.

And the TGI (MOLT-4 leukemia)?
Its TGI is > 100 µM.

What about the GI50 (NCI-H226 lung) of the same compound?
Its GI50 is 4.79 µM.

And the TGI (NCI-H226 lung)?
The TGI was > 100 µM.

What about the GI50 (NCI-H23 lung) of the same compound?
Its GI50 is 4.67 µM.

What about the TGI (NCI-H23 lung) of the same compound?
The TGI was 22.7 µM.

And the GI50 (NCI-H460 lung)?
Its GI50 is 3.11 µM.

What about the TGI (NCI-H460 lung) of the same compound?
The TGI was 11.5 µM.

And the GI50 (NCI-H522 lung)?
Its GI50 is 3.33 µM.

What about the TGI (NCI-H522 lung) of the same compound?
The TGI was 13.5 µM.

And the GI50 (NCI/ADR-RES ovarian)?
The GI50 was 3.09 µM.

What about the TGI (NCI/ADR-RES ovarian) of the same compound?
The TGI was 28.6 µM.

What about the GI50 (OVCAR-3 ovarian) of the same compound?
Its GI50 is 3.44 µM.

And the TGI (OVCAR-3 ovarian)?
Its TGI is 10.9 µM.

And the GI50 (OVCAR-4 ovarian)?
The GI50 was 7.91 µM.

And the TGI (OVCAR-4 ovarian)?
Its TGI is 21 µM.

What about the GI50 (OVCAR-5 ovarian) of the same compound?
Its GI50 is 9.25 µM.

What about the TGI (OVCAR-5 ovarian) of the same compound?
Its TGI is 31.6 µM.

What about the GI50 (OVCAR-8 ovarian) of the same compound?
The GI50 was 3.82 µM.

And the TGI (OVCAR-8 ovarian)?
Its TGI is > 100 µM.

And the GI50 (PC-3 prostate)?
Its GI50 is 6.18 µM.

What about the TGI (PC-3 prostate) of the same compound?
The TGI was 32.9 µM.

What about the GI50 (RPMI-8226 leukemia) of the same compound?
The GI50 was 3.39 µM.

And the TGI (RPMI-8226 leukemia)?
The TGI was 33.3 µM.

And the GI50 (RXF 393 renal)?
The GI50 was 2800 nM.

What about the TGI (RXF 393 renal) of the same compound?
Its TGI is 11.4 µM.

What about the GI50 (SF-268 CNS) of the same compound?
The GI50 was 3.46 µM.

What about the TGI (SF-268 CNS) of the same compound?
The TGI was 19.9 µM.

And the GI50 (SF-295 CNS)?
The GI50 was 3.17 µM.

What about the TGI (SF-295 CNS) of the same compound?
Its TGI is 13.2 µM.

And the GI50 (SF-539 CNS)?
The GI50 was 2400 nM.

And the TGI (SF-539 CNS)?
The TGI was 8.46 µM.

What about the GI50 (SK-MEL-2 melanoma) of the same compound?
The GI50 was 15.6 µM.

What about the TGI (SK-MEL-2 melanoma) of the same compound?
Its TGI is 58.9 µM.

What about the GI50 (SK-MEL-28 melanoma) of the same compound?
The GI50 was 6.72 µM.

What about the TGI (SK-MEL-28 melanoma) of the same compound?
Its TGI is > 100 µM.

And the GI50 (SK-MEL-5 melanoma)?
Its GI50 is 3.76 µM.

What about the TGI (SK-MEL-5 melanoma) of the same compound?
Its TGI is 14.9 µM.

What about the GI50 (SK-OV-3 ovarian) of the same compound?
The GI50 was 6.14 µM.

And the TGI (SK-OV-3 ovarian)?
Its TGI is > 100 µM.

And the GI50 (SN12C renal)?
Its GI50 is 3.26 µM.

And the TGI (SN12C renal)?
The TGI was 25.7 µM.

And the GI50 (SNB-19 CNS)?
Its GI50 is 5.1 µM.

And the TGI (SNB-19 CNS)?
Its TGI is 27.3 µM.

What about the GI50 (SNB-75 CNS) of the same compound?
The GI50 was 2740 nM.

What about the TGI (SNB-75 CNS) of the same compound?
Its TGI is 12.2 µM.

And the GI50 (SR leukemia)?
The GI50 was 2560 nM.

What about the TGI (SR leukemia) of the same compound?
Its TGI is 30.3 µM.

What about the GI50 (SW-620 colon) of the same compound?
The GI50 was 2790 nM.

What about the TGI (SW-620 colon) of the same compound?
Its TGI is 11.5 µM.

What about the GI50 (T-47D breast) of the same compound?
The GI50 was 3.01 µM.

What about the TGI (T-47D breast) of the same compound?
The TGI was 16 µM.

And the GI50 (TK-10 renal)?
The GI50 was 4.4 µM.

And the TGI (TK-10 renal)?
The TGI was 24.1 µM.

What about the GI50 (U251 CNS) of the same compound?
The GI50 was 3.41 µM.

And the TGI (U251 CNS)?
The TGI was 13.2 µM.

What about the GI50 (UACC-257 melanoma) of the same compound?
Its GI50 is 10.6 µM.

And the TGI (UACC-257 melanoma)?
The TGI was 30.9 µM.

What about the GI50 (UACC-62 melanoma) of the same compound?
Its GI50 is 3.83 µM.

And the TGI (UACC-62 melanoma)?
The TGI was 17.3 µM.

And the GI50 (UO-31 renal)?
The GI50 was 3.63 µM.

And the TGI (UO-31 renal)?
Its TGI is 17.4 µM.
